# Experimental data: patent publication US12662518B2, “Engineered peptide and peptide mimetic compositions and methods” (The Wistar Institute of Anatomy and Biology, priority 2019, dated 2026)
# Peptide text beside a SMILES is read from it.
# How the values were obtained:
# [1] = test system: isolated tumor (PC3) mitochondria; assay: high-throughput assay for depolarization of isolated tumor (PC3) mitochondria, TMRE staining; type: biochemical, human; conditions: MFF peptides 20 μM
# Protocol: Analysis of mitochondrial membrane potential. […] In some experiments, PC3 cells were treated with cell-permeable scrambled peptide or cell-permeable MFF #8-11 peptide, washed three times in PBS, pH 7.4, and analyzed on a FACSCalibur flow cytometer, with the TMRE signal as FL1. Intact cells were gated in the FSC/SSC plot to exclude small debris. Cells treated with 20 μM FCCP 10 min prior to TMRE staining were used as a negative control. The resulting FL1 data were plotted on a histogram. For quantification of membrane potential of purified mitochondria, mitochondria isolated from PC3 cells (50 μg) were suspended in 400 μl of SB buffer (0.2 M sucrose, 10 mM Tris-MOPS, pH 7.4, 5 mM succinate, 1 mM sodium phosphate, 10 μM EGTA-Tris, 2 μM rotenone). […] After two washes with SB buffer, mitochondria were recovered by centrifugation at 6000×g for 10 min, suspended in 100 μl of SB buffer and mitochondrial membrane potential was quantified on a florescence microplate reader (Ex/Em=535/595 nm, Beckman Coulter). Samples treated with 2 mM CaCl2 were used as control for the lowest membrane potential (fully depolarized state).
# [2] = test system: NSCLC A549 and H460 or breast adenocarcinoma MDA-231 and MCF-7 cells; assay: NSCLC and breast adenocarcinoma cell lines, TMRE flow cytometry and CellTox cell death; type: cell-based, human; conditions: A549, H460, MDA-231, MCF-7 cells, 10-25 μM, TMRE
# human recombinant VDAC = molecular target: T1, human recombinant VDAC (Homo sapiens, UniProt P21796); assay: isothermal titration calorimetry (ITC); type: binding; conditions: 20° C.
# T1 construct: The cleaved, full length hVDAC1 was collected from the HS-HQ flow through; hexahistidine-SUMO (N, cleaved yes); made in house; host or cells: E. coli ScarabXpress T7 lac
# Protocol: Expression and purification of human VDAC1. A full length human VDAC1 cDNA (hVDAC1) was cloned into pET28b vector containing an N-terminal hexahistidine-SUMO fusion tag, with a flexible linker cleavable by tobacco etch virus (TEV) protease. The hVDAC1 was expressed in E. coli ScarabXpress T7 lac competent cells (Scarab genomics) for 16 h at 16° C. using 1 mM IPTG (Denville Scientific Inc.). The cells were harvested by centrifugation and lysed on ice via sonication in buffer containing 25 mM Tris-HCl (pH 7.5), 1 M Urea, 1 M KCl, 5% glycerol, 1 mM Benzamidine and 1 mM PMSF (Ni Buffer A). The lysate was centrifuged at 18,000 rpm for 20 min at 4° C. The cell pellet was first washed extensively in Ni Buffer A with 1% Triton X-100 and then solubilized in buffer containing 20 mM Tris-HCl (pH 7.9), 500 mM NaCl, 4 M guanidine-HCl and 10% glycerol for 45 min with gentle stirring. The supernatant was collected following centrifugation at 20,000 rpm for 10 min at 4° C. The protein was then purified over nickel-nitrilotriacetic acid (Ni-NTA—Qiagen) column and buffer-exchanged to 25 mM Tris-HCl (pH 7.5), 500 mM KCl, 5% glycerol, 1 mM benzamidine and 1 mM PMSF (Ni buffer C) with 2% n-Octylglucoside (Research Products International). The protein was then eluted with 300 mM imidazole and treated overnight with TEV at 4° C. to cleave the His-SUMO tag. […]
# PC3 cells = assay: cytochrome c release from tumor cells, Western blotting; type: cell-based, human; conditions: supernatants vs mitochondrial extracts
# [3] = test system: prostate cancer cell types (LNCaP, C4-2B, PC3, DU145); assay: cell death of prostate cancer cells, CellTox reactivity; type: cell-based, human; conditions: PC3 / prostate cancer cells, 0-50 μM
# Protocol: Cell death and apoptosis. […] The various cell-permeable MFF peptides were examined for induction of cytotoxicity using a CellTOX Green cytotoxicity assay kit (Promega). Briefly, 10^4 normal or tumor cells in 100 μl complete medium were plated on white opaque 96-well plate. […] Lysis Solution in the assay kit was used as cytotoxicity control (100% cell death) and treatment with PBS was used as a control for 100% cell viability.
# DU145 or PC3 cells = assay: release of HMGB1 and cyclophilin A from tumor cells, Western blotting; type: cell-based, human; conditions: marker of necrosis
# [4] = test system: mitochondria of normal BPH-1 cells; assay: depolarization of isolated mitochondria of normal BPH-1 cells, TMRE staining; type: biochemical, human; conditions: peptide #8 10-30 μM
# [5] = molecular target: T2, MFF-PTP complex (MFF and VDAC or HK-I) (Homo sapiens, UniProt P21796); assay: competition of MFF-PTP complex in isolated cell extracts, Flag-MFF1 immunoprecipitation and Western blotting; type: biochemical; conditions: added to isolated cell extracts
# T2 construct: VDAC and HK-I are endogenous
# Protocol: Immunoprecipitation (IP). Cells were harvested and lysed with IP buffer (50 mM Tris-HCl, pH 7.5, 150 mM NaCl, 1 mM EDTA) containing 1% CHAPS, EDTA-free Protease Inhibitor Cocktail (Sigma-Aldrich) and Phosphatase Inhibitor Cocktail PhosSTOP (Roche). After sonication, lysates were centrifuged at 15,000×g for 30 min, and cell extracts were incubated with anti-Flag-conjugated beads (Sigma-Aldrich). The precipitates were washed five times, separated by SDS-polyacrylamide gel electrophoresis and processed for Western blotting together with samples representing unbound material and supernatant.
# Immunoprecipitation. Cells were harvested and lysed with PLD assay buffer (50 mM HEPES-NaOH, pH 7.3, 3 mM EGTA, 3 mM CaCl2, 3 mM MgCl2, 80 mM KCl) containing 1% CHAPS, EDTA-free Protease Inhibitor Cocktail (Sigma-Aldrich) and Phosphatase Inhibitor Cocktail PhosSTOP (Roche). After sonication, lysates were centrifuged at 15,000×g for 30 min, and cell extracts were incubated with anti-Flag-conjugated beads (Sigma-Aldrich). The precipitates were washed five times, separated by sodium dodecyl sulfate-polyacrylamide gel electrophoresis (SDS-PAGE) and processed for Western blotting.
# T1 sequence (P21796 whole entry): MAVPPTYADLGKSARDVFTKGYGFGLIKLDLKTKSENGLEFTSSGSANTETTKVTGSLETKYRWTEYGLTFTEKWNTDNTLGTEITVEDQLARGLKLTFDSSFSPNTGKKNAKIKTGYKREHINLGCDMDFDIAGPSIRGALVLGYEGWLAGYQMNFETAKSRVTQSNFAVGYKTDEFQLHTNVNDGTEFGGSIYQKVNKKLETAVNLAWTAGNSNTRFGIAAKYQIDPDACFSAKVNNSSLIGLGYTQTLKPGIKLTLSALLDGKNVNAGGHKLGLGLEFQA
# T2 sequence (P21796 2-283 limits assumed, one chain of several): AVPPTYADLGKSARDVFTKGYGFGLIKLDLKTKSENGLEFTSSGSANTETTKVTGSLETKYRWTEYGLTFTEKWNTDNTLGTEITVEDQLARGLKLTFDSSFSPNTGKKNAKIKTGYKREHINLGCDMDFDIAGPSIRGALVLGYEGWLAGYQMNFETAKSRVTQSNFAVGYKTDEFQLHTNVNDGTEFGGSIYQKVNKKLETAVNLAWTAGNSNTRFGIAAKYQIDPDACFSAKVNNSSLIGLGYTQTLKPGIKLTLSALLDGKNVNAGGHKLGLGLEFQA
molecule,measurement,setting,value
SARGILSLIQSSTRRAYQQILDVL (MFF Deletion; Peptide 8 #2) [peptide #8 variant #2],depolarization of isolated tumor (PC3) mitochondria,[1],depolarized isolated tumor mitochondria
SSQLRYLARSQRITIQLIAGS (MFF Scramble; Peptide 8 #11) [scrambled sequence],mitochondrial membrane potential,[2],not
same,binding to human recombinant VDAC by ITC,human recombinant VDAC,ineffective
AEMAEISRIQYEMEYTEGISQRMRVP (MFF-Derived; Peptide #1) [MFF #1],cytochrome c release from tumor cells,PC3 cells,had no effect
NLSSARGILSLIQSSTRRAYQQILDVL (MFF Deletion; Peptide 8 #1) [peptide #8 variant #1],depolarization of isolated tumor (PC3) mitochondria,[1],depolarized isolated tumor mitochondria
MFF peptide #8-11 containing the double mutation R225D/R236D (DD): cell-permeable MFF peptide #8-11 mutant containing the double mutation R225D/R236D (DD) (RQIKIWFQNRRMKSADGILSLIQSSTDRAYQQIL),tumor cell death / viability,[3],did not affect tumor cell viability
same,tumor cell death / viability,[3]; listed as DD,entirely lost the ability to induce tumor (PC3) cell death
same,HMGB1 release from tumor cells,DU145 or PC3 cells,had no effect on HMGB1 release
same,HMGB1 release from tumor cells,DU145 or PC3 cells; listed as MFF-DD mutant peptide #8-11,did not induce HMGB1 release
DGANLSSARGILSLIQSSTRRAYQQILDVL (MFF-Derived; Peptide #8) [MFF peptide #8],depolarization of mitochondria of normal BPH-1 cells,[4],did not depolarize
same,disruption of the interaction between MFF and VDAC or HK-I,[5],disrupting the interaction between MFF and VDAC or HK-I
same,depolarization of isolated tumor (PC3) mitochondria,[1],depolarized tumor mitochondria
CC[C@H](C)[C@H](NC(=O)CNC(=O)[C@H](CCCNC(=N)N)NC(=O)[C@H](C)NC(=O)[C@@H](N)CO)C(=O)N[C@@H](CC(C)C)C(=O)N[C@@H](CO)C(=O)N[C@@H](CC(C)C)C(=O)N[C@H](C(=O)N[C@@H](CCC(N)=O)C(=O)N[C@@H](CO)C(=O)N[C@@H](CO)C(=O)N[C@H](C(=O)N[C@@H](CCCNC(=N)N)C(=O)N[C@@H](CCCNC(=N)N)C(=O)N[C@@H](C)C(=O)N[C@@H](Cc1ccc(O)cc1)C(=O)N[C@@H](CCC(N)=O)C(=O)N[C@@H](CCC(N)=O)C(=O)N[C@H](C(=O)N[C@@H](CC(C)C)C(=O)O)[C@@H](C)CC)[C@@H](C)O)[C@@H](C)CC [MFF peptide #8-11] (H-SARGILSLIQSSTRRAYQQIL-OH),Kd,human recombinant VDAC,~12 µM
DGANLSSARGILSLIQSSTRRAYQQIL (MFF Deletion; Peptide 8 #6) [peptide #8 variant #6],depolarization of isolated tumor (PC3) mitochondria,[1],depolarized isolated tumor mitochondria
